Experimental data taken from PubChem BioAssay AID248 (DTP/NCI, 2004).
Values joined by “and” are separate entries in the source; they are usually repeats but may differ in a detail not shown here. Equal values may be shown once. Toxic doses and inconclusive results are not listed. Cut-off read from the data, not from the text of the source: active = T/C of 150% or more; inactive = T/C below 125%.

Tested on: L1210 leukemia ip in BDF1 mice, survival T/C
Assay: NCI In Vivo Anticancer Drug Screen. Data for tumor model L1210 Leukemia (intraperitoneal) in B6D2F1 (BDF1) mice
Details: endpoint: mean survival time, higher = longer survival
Procedure, shortened: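 Survival endpoint. Drug-treated group vs vehicle group, expressed as T divided by C. Tumor passaged by transplantation.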

[1] = dose: 100.0 mg/kg/injection, schedule: Q01DX001 (ip), vehicle: saline
[2] = dose: 200.0 mg/kg/injection, schedule: Q01DX001 (ip), vehicle: saline
[3] = dose: 400.0 mg/kg/injection, schedule: Q01DX001 (ip), vehicle: saline
[4] = dose: 100.0 mg/kg/injection, schedule: Q04DX002 (ip), vehicle: saline
[5] = dose: 100.0 mg/kg/injection, schedule: Q01DX001 (ip), vehicle: Klucel (hydroxypropylcellulose) (HPC)
[6] = dose: 100.0 mg/kg/injection, schedule: Q04DX003 (ip), vehicle: Klucel (hydroxypropylcellulose) (HPC)
[7] = dose: 200.0 mg/kg/injection, schedule: Q01DX001 (ip), vehicle: Klucel (hydroxypropylcellulose) (HPC)
[8] = dose: 200.0 mg/kg/injection, schedule: Q04DX003 (ip), vehicle: Klucel (hydroxypropylcellulose) (HPC)
[9] = dose: 400.0 mg/kg/injection, schedule: Q01DX001 (ip), vehicle: Klucel (hydroxypropylcellulose) (HPC)
[10] = dose: 400.0 mg/kg/injection, schedule: Q04DX003 (ip), vehicle: Klucel (hydroxypropylcellulose) (HPC)
[11] = dose: 100.0 mg/kg/injection, schedule: Q01DX009 (ip), vehicle: Klucel (hydroxypropylcellulose) (HPC)
[12] = dose: 200.0 mg/kg/injection, schedule: Q01DX009 (ip), vehicle: Klucel (hydroxypropylcellulose) (HPC)
[13] = dose: 400.0 mg/kg/injection, schedule: Q01DX009 (ip), vehicle: Klucel (hydroxypropylcellulose) (HPC)
[14] = dose: 100.0 mg/kg/injection, schedule: Q01DX009 (ip), vehicle: saline with Tween-80
[15] = dose: 100.0 mg/kg/injection, schedule: Q04DX003 (ip), vehicle: saline with Tween-80
[16] = dose: 200.0 mg/kg/injection, schedule: Q01DX009 (ip), vehicle: saline with Tween-80
[17] = dose: 200.0 mg/kg/injection, schedule: Q04DX003 (ip), vehicle: saline with Tween-80
[18] = dose: 400.0 mg/kg/injection, schedule: Q01DX009 (ip), vehicle: saline with Tween-80
[19] = dose: 400.0 mg/kg/injection, schedule: Q04DX003 (ip), vehicle: saline with Tween-80
[20] = dose: 100.0 mg/kg/injection, schedule: Q01DX009 (ip), vehicle: saline
[21] = dose: 100.0 mg/kg/injection, schedule: Q04DX002 (ip), vehicle: Klucel (hydroxypropylcellulose) (HPC)
[22] = dose: 200.0 mg/kg/injection, schedule: Q04DX002 (ip), vehicle: Klucel (hydroxypropylcellulose) (HPC)
[23] = dose: 400.0 mg/kg/injection, schedule: Q04DX002 (ip), vehicle: Klucel (hydroxypropylcellulose) (HPC)

Measured: T/C

CCNS(=O)(=O)O
inactive: dose: 25.0 mg/kg/injection, schedule: Q01DX001 (ip), vehicle: saline 98 % of control | dose: 50.0 mg/kg/injection, schedule: Q01DX001 (ip), vehicle: saline 104 % of control | [1] 107 % of control and 120 % of control | [2] 102 % of control | [3] 105 % of control

Nc1nc(N)c2c(n1)[n+]([O-])c1ccccc1[n+]2[O-]
inactive: [1] 103 % of control | [2] 103 % of control | [3] 94 % of control

CC1[N-]CCC[N-]CCC[N-]C(C)C2CCCC1[N-]2.[Ni+2].[O-][Cl+3]([O-])([O-])O (stereo unspecified)
inactive: dose: 25.0 mg/kg/injection, schedule: Q04DX002 (ip), vehicle: saline 92 % of control | dose: 50.0 mg/kg/injection, schedule: Q04DX002 (ip), vehicle: saline 89 % of control | [4] 92 % of control

CC(C)Nc1ccc(C(=O)O)cc1
inactive: [5] 100 % of control | [6] 98 % of control | [7] 91 % of control | [8] 100 % of control | [9] 102 % of control | [10] 100 % of control

O=C(O)c1ccc(N=Nc2nc3ccccc3[nH]2)cc1
inactive: dose: 50.0 mg/kg/injection, schedule: Q01DX009 (ip), vehicle: Klucel (hydroxypropylcellulose) (HPC) 90 % of control | [11] 93 % of control | [12] 90 % of control

CC1(C)OC(=O)C(C(=O)O)C1c1ccccc1 (stereo unspecified)
inactive: [1] 97 % of control | [2] 94 % of control

CCOC(=O)/C(=C\c1ccccc1)C(C)=O
inactive: [6] 101 % of control | [8] 92 % of control | [10] 104 % of control

O=C(COc1ccc(Cl)cc1)Nc1cc(C(F)(F)F)ccc1Cl
inactive: [11] 94 % of control | [6] 98 % of control | [12] 86 % of control | [8] 93 % of control | [13] 86 % of control | [10] 95 % of control

NCCNC(=S)S
inactive: [5] 103 % of control | [14] 93 % of control | [15] 93 % of control | [7] 95 % of control | [16] 87 % of control | [17] 95 % of control | [9] 103 % of control | [18] 86 % of control | [19] 91 % of control

O=S(=O)(/C(Br)=C\c1ccccc1)c1ccccc1
inactive: [1] 103 % of control | [20] 104 % of control | dose: 100.0 mg/kg/injection, schedule: Q04DX003 (ip), vehicle: saline 98 % of control | [2] 102 % of control | dose: 200.0 mg/kg/injection, schedule: Q01DX009 (ip), vehicle: saline 110 % of control | dose: 200.0 mg/kg/injection, schedule: Q04DX003 (ip), vehicle: saline 101 % of control | [3] 102 % of control | dose: 400.0 mg/kg/injection, schedule: Q01DX009 (ip), vehicle: saline 98 % of control | dose: 400.0 mg/kg/injection, schedule: Q04DX003 (ip), vehicle: saline 98 % of control

Nc1ccc(Cl)c(C(=O)O)c1
inactive: [11] 111 % of control | [12] 121 % of control | [13] 105 % of control

C/C=C(\Nc1ccc([N+](=O)[O-])cc1[N+](=O)[O-])C(=O)OC
inactive: [1] 101 % of control | [2] 98 % of control | [3] 101 % of control

CC(=O)OCCC/C(=C/c1ccc2c(c1)OCO2)[N+](=O)[O-]
inactive: [1] 104 % of control | [2] 101 % of control | [3] 98 % of control

O=C(c1ccc(-c2ccccc2)cc1)C1CC1c1ccccc1 (stereo unspecified)
inactive: dose: 100.0 mg/kg/injection, schedule: Q01DX009 (ip), vehicle: saline sonified 97 % of control | dose: 200.0 mg/kg/injection, schedule: Q01DX009 (ip), vehicle: saline sonified 96 % of control | dose: 400.0 mg/kg/injection, schedule: Q01DX009 (ip), vehicle: saline sonified 91 % of control

CC(C)OC(=S)SCC(=O)c1ccc(C(F)(F)F)cc1
inactive: [21] 96 % of control | [22] 92 % of control | [23] 92 % of control

O=c1[nH]nnc2ccccc12
inactive: dose: 50.0 mg/kg/injection, schedule: Q01DX009 (ip), vehicle: saline 90 % of control | [20] 90 % of control | dose: 100.0 mg/kg/injection, schedule: Q04DX003 (ip), vehicle: alcohol 98 % of control | dose: 200.0 mg/kg/injection, schedule: Q04DX003 (ip), vehicle: alcohol 100 % of control

CCCCCCCCCCCCCCCCN(C)/C(=N\NS(=O)(=O)c1cccc([N+](=O)[O-])c1)c1ccc(OC)c(OC)c1
inactive: [6] 93 % of control | [8] 95 % of control | [10] 93 % of control

CC1CCC(C(C)C)C2(C1)NC(=O)N(CC(=O)O)C2=O (stereo unspecified)
inactive: [15] 93 % of control | [17] 100 % of control | [19] 104 % of control

O=c1cc(C(O)c2ccccc2)c2cccc3c2n1CCC3 (stereo unspecified)
inactive: [14] 95 % of control | [15] 98 % of control | [16] 95 % of control | [17] 95 % of control | [18] 101 % of control | [19] 89 % of control

Nc1nc(-c2cc(Br)ccc2N=NN2CCOCC2)nc2ccc(Br)cc12
inactive: [21] 105 % of control | [22] 96 % of control | [23] 89 % of control

O=C(O)C[CH2][Ge](=[O])[O][Ge](=[O])[CH2]CC(=O)O
inactive: [4] 100 % of control | dose: 200.0 mg/kg/injection, schedule: Q04DX002 (ip), vehicle: saline 103 % of control | dose: 400.0 mg/kg/injection, schedule: Q04DX002 (ip), vehicle: saline 103 % of control

Brc1cccc[n+]1CCC[n+]1ccccc1Br
inactive: dose: 2.2 mg/kg/injection, schedule: Q01DX Z (ip), vehicle: saline 93 % of control | dose: 3.3 mg/kg/injection, schedule: Q01DX Z (ip), vehicle: saline 87 % of control | dose: 5.0 mg/kg/injection, schedule: Q01DX Z (ip), vehicle: saline 98 % of control

Nc1ncnc(N)c1NC(=O)c1cccc([N+](=O)[O-])c1
inactive: [6] 98 % of control | [8] 103 % of control | [10] 93 % of control

CC1(C(=O)O)NC(C(=O)O)CS1 (stereo unspecified)
inactive: dose: 5.0 mg/kg/injection, schedule: Q01DX001 (ip), vehicle: saline 96 % of control | dose: 10.0 mg/kg/injection, schedule: Q01DX001 (ip), vehicle: saline 108 % of control | dose: 20.0 mg/kg/injection, schedule: Q01DX001 (ip), vehicle: saline 104 % of control | dose: 40.0 mg/kg/injection, schedule: Q01DX001 (ip), vehicle: saline 102 % of control | dose: 80.0 mg/kg/injection, schedule: Q01DX001 (ip), vehicle: saline 98 % of control

O=C(CCCC(=O)N/N=C/c1cccc(Br)c1)N/N=C\c1cccc(Br)c1
inactive: dose: 50.0 mg/kg/injection, schedule: Q01DX001 (ip), vehicle: carboxymethylcellulose (CMC) 90 % of control | dose: 100.0 mg/kg/injection, schedule: Q01DX001 (ip), vehicle: carboxymethylcellulose (CMC) 88 % of control

COc1ccc(Cl)cc1NC(=O)c1ccc(Cl)cc1Cl
inactive: [14] 96 % of control | [15] 98 % of control | [16] 94 % of control | [17] 93 % of control | [18] 102 % of control | [19] 97 % of control

CNC(=O)C1C2C=CC(CC2)C1C(=O)NC (stereo unspecified)
inactive: [15] 108 % of control | [17] 100 % of control | [19] 100 % of control

CC(C)(C)C(=O)CC(=O)C(C)(C)C.CC(C)(C)C(=O)CC(=O)C(C)(C)C.CC(C)(C)C(=O)CC(=O)C(C)(C)C.[Pr]
inactive: dose: 100.0 mg/kg/injection, schedule: Q01DX001 (ip), vehicle: saline with Tween-80 100 % of control | [14] 98 % of control | dose: 200.0 mg/kg/injection, schedule: Q01DX001 (ip), vehicle: saline with Tween-80 97 % of control | [16] 88 % of control | dose: 400.0 mg/kg/injection, schedule: Q01DX001 (ip), vehicle: saline with Tween-80 89 % of control

O=C(N/N=C/c1ccccc1Cl)C(O)C(O)C(O)C(O)CO (stereo unspecified)
inactive: dose: 100.0 mg/kg/injection, schedule: Q04DX002 (ip), vehicle: saline with Tween-80 112 % of control | dose: 200.0 mg/kg/injection, schedule: Q04DX002 (ip), vehicle: saline with Tween-80 94 % of control | dose: 400.0 mg/kg/injection, schedule: Q04DX002 (ip), vehicle: saline with Tween-80 94 % of control
